Experimental data from US11912652B1, “8-(2-hydroxybenzylideneamino)naphthalene-1,3-disulfonic acid as an antioxidant compound” (KING FAISAL UNIVERSITY, priority 2023, dated 2024).

Assay: DPPH (2,2-diphenyl-1-picrylhydrazyl) radical scavenging antioxidant test
Format: biochemical
Conditions: 517 nm; for Inhibition (radical scavenging inhibition): 0.2 mL DPPH (0.75 mM), compound 3 μM in ethanol, 30 minutes in the dark
Description: The antioxidant properties of the 8-(2-hydroxybenzylideneamino)naphthalene-1,3-disulfonic acid compound were studied by adding 0.2 mL DPPH (0.75 mM)) to 8-(2-hydroxybenzylideneamino)naphthalene-1,3-disulfonic acid (III) (3 μM) in ethanol. After 30 minutes of incubation in the dark, the absorbance was read against a blank at 517 nm. Ascorbic acid (vitamin C) was used as standard antioxidants (positive control). A blank sample was prepared by 0.2 ml of DPPH in 3 mL ethanol. A negative control sample was run using ethanol instead of the sample. The radical scavenging inhibition was calculated using the following equation: […]
The antioxidant activity for the synthesized compound is listed in Table 1, using Vitamin C as a reference.

| SMILES | Inhibition (radical scavenging inhibition) | antioxidant potential compared to vitamin C (in words) (DPPH in vitro test, vitamin C as positive control) |
| --- | --- | --- |
| O=S(=O)(O)c1cc(S(=O)(=O)O)c2c(/N=C/c3ccccc3O)cccc2c1 [Product III, 8-(2-hydroxybenzylideneamino)naphthalene-1,3-disulfonic acid] | 54% | high potential as an antioxidant |
| O=C1O[C@H]([C@@H](O)CO)C(O)=C1O [vit c, Ascorbic acid, reference compound] | 74% |  |
